This note sets out measurements from US8268848B2, “Cyclopropane compound” (Eisai R&D Management Co., Ltd., priority 2010, dated 2012).

SMILES strings stand for the structures. Read-outs that look alike come from different tables or passages of the source. Where only a bound is given, the exact number is not on record here.

The target of one experiment is T1, OX1 (Homo sapiens, UniProt O43613).
T1 sequence (O43613 1-425): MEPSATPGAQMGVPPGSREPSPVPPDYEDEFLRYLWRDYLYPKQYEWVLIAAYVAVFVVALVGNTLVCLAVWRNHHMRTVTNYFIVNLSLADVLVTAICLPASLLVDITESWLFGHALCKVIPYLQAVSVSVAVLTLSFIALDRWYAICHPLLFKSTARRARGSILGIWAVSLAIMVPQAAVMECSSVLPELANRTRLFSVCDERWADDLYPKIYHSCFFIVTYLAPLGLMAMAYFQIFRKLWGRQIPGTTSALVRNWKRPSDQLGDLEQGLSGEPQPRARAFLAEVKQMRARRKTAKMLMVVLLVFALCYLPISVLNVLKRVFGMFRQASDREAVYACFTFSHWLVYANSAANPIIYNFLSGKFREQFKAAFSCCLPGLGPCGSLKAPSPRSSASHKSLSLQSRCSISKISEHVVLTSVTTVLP
The experiment is described as follows: Measurement of orexin receptor-binding ability ([125I]-OX-A, cell membranes, OX1). The arrangement: expressed in transfected cells; host or cells: CHO cells (membrane preparation).

The target in the next experiment is T2, OX2 (Homo sapiens, UniProt O43614).
T2 sequence (O43614 1-444): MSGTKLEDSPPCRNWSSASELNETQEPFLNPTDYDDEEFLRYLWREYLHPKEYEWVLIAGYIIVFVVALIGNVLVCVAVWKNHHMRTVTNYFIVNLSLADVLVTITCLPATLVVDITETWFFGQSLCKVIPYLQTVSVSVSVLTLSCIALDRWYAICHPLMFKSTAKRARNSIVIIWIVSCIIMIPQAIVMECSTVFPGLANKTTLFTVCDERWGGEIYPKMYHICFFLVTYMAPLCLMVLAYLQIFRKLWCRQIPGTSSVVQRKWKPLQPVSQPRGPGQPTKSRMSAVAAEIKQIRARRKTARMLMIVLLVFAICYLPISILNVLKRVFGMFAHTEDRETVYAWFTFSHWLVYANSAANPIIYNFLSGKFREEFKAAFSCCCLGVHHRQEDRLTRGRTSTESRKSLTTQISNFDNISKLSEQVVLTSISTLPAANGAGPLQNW
The experiment is described as follows: Measurement of orexin receptor-binding ability ([125I]-OX-A, cell membranes, OX2). Conditions: membranes of recombinant CHO cells expressing OX2, 0.2 nM [125I]-OX-A. The arrangement: expressed in transfected cells; host or cells: CHO cells (membrane preparation).

Setting [1] is: membranes of recombinant CHO cells expressing OX1, 0.2 nM [125I]-OX-A, read-out: OX1 (IC50).

As to `Cc1ncc(OC[C@@]2(c3ccccc3)C[C@H]2C(=O)Nc2cc3ccccc3cn2)c(C)n1` [Example 52], the IC50 (commonly the concentration that gives 50% inhibition) on OX1 (setting [1]) worked out at 37 nM; at OX2 (read-out: OX2 (IC50)), 28 nM.
Consider `COCc1nc(C)ncc1OC[C@@]1(c2cc(F)cc(OC)c2)C[C@H]1C(=O)Nc1ccc(F)c(F)c1` [Example 232, (1R,2S)-N-(3,4-difluorophenyl)-2-(3-fluoro-5-methoxyphenyl)-2-{[(4-methoxymethyl-2-methylpyrimidin-5-yl)oxy]methyl}cyclopropanecarboxamide], for which the concentration for half-maximal inhibition (IC50) on OX1 (setting [1]) amounted to 1 nM; at OX2 (read-out: OX2 (IC50)), 3 nM.
`COc1cc(NC(=O)[C@@H]2C[C@@]2(COc2cnc(C)nc2C)c2ccc(F)c(F)c2)ncc1F` [Example 173, (1R,2S)-2-(3,4-difluorophenyl)-2-{[(2,4-dimethylpyrimidin-5-yl)oxy]methyl}-N-(5-fluoro-4-methoxypyridin-2-yl)cyclopropanecarboxamide]: the values for the IC50 at OX1 (setting [1]) and on OX2 (read-out: OX2 (IC50)) were 3.6 nM and 3.3 nM, respectively.
The matching figures for `CCc1ncc(OC[C@@]2(c3ccccc3)C[C@H]2C(=O)Nc2ccc(Cl)cn2)c(C)n1` [Example 128, (1R,2S)-N-(5-chloropyridin-2-yl)-2-{[(2-ethyl-4-methylpyrimidin-5-yl)oxy]methyl}-2-phenylcyclopropanecarboxamide]: 231 nM and 75 nM.
Regarding `Cc1ncc(OC[C@@]2(c3ccccc3)C[C@H]2C(=O)Nc2cccc(C(F)(F)F)c2)c(C)n1` [Example 43, (1R,2S)-2-{[(2,4-dimethylpyrimidin-5-yl)oxy]methyl}-2-phenyl-N-[3-(trifluoromethyl)phenyl]cyclopropanecarboxamide], the results for the IC50 on OX1 (setting [1]) and on OX2 (read-out: OX2 (IC50)) were 86 nM and 7 nM, respectively.
For `Cc1ncc(OC[C@@]2(c3ccccc3)C[C@H]2C(=O)Nc2ccccc2F)c(C)n1` [Example 78], the IC50 on OX1 was found to be 662 nM; on OX2 (OX2 (IC50) nM) it was 94 nM.
`Cc1ncc(OCC2(c3ccccc3F)CC2C(=O)Nc2cccnc2)c(C)n1` (stereo not shown) [Example 276]: the IC50 at OX1 amounted to 3210 nM; on OX2 (OX2 (IC50) nM) it was 76 nM.
Take `Cc1ncc(OCC2(c3cccc(C(F)(F)F)c3)CC2C(=O)Nc2ccc(Cl)cn2)c(C)n1` (stereo not shown) [Example 265]: the half-maximal inhibitory concentration (IC50) stood at 43 nM at OX1 and 10 nM at OX2 (OX2 (IC50) nM).
As for `Cc1ncc(N(C)C[C@@]2(c3cccc(F)c3)C[C@H]2C(=O)Nc2ccc(F)c(F)c2)c(C)n1` [Example 296], the figures for the IC50 at OX1 (setting [1]) and on OX2 (read-out: OX2 (IC50)) were more than 200 nM and 8 nM, respectively.
With `COCc1nc(C)ncc1OC[C@@]1(c2ccc(F)c(F)c2)C[C@H]1C(=O)Nc1ccccn1` [Example 211, (1R,2S)-2-(3,4-difluorophenyl)-2-{[(4-methoxymethyl-2-methylpyrimidin-5-yl)oxy]methyl}-N-(pyridin-2-yl)cyclopropanecarboxamide], the IC50 came out at 20 nM at OX1 and 4 nM on OX2 (OX2 (IC50) nM).
`Cc1ncc(OC[C@@]2(c3cccc(F)c3)C[C@H]2c2nc3ccccc3c(=O)[nH]2)c(C)n1` [Example 310]: the IC50 at OX1 (setting [1]) is 40 nM; on OX2 (read-out: OX2 (IC50)), 13 nM.
On to `CC(=O)c1cccc(NC(=O)[C@@H]2C[C@@]2(COc2cnc(C)nc2C)c2ccccc2)c1` [Example 37], for which the concentration for half-maximal inhibition (IC50) on OX1 is 41 nM; on OX2 (OX2 (IC50) nM) it was 8 nM.
The matching figures for `Cc1ncc(OC[C@@]2(c3cccc(F)c3)C[C@H]2C(=O)Nc2ccnc(F)c2)c(C)n1` [Example 97]: 105 nM and 21 nM.
For `COc1ccccc1C1(COc2cnc(C)nc2C)CC1C(=O)Nc1ccc(F)cn1` (stereo not shown) [Example 125], the IC50 is 1050 nM on OX1 and 84 nM at OX2 (OX2 (IC50) nM).
Take `Cc1ncc(OC[C@@]2(c3cccc(F)c3)C[C@H]2C(=O)Nc2cnc(F)c(C)c2)c(C)n1` [Example 91]: the IC50 at OX1 was determined as 215 nM; at OX2 (OX2 (IC50) nM), 22 nM.
In the case of `Cc1ncc(OC[C@@]2(c3ccccc3)C[C@H]2C(=O)Nc2cnc(Cl)c(Br)c2)c(C)n1` [Example 59], the IC50 on OX1 (setting [1]) came out at 1410 nM; at OX2 (read-out: OX2 (IC50)), 51 nM.
With `Cc1ncc(OC[C@@]2(c3cccs3)C[C@H]2C(=O)Nc2ccc(F)cn2)c(C)n1` [Example 268], the values for the IC50 at OX1 and on OX2 (OX2 (IC50) nM) were 164 nM and 36 nM, respectively.
For `Cc1ncc(OCC2(c3cccc(Cl)c3)CC2C(=O)Nc2ccc(F)cn2)c(C)n1` (stereo not shown) [Example 154], the 50% inhibitory concentration (IC50) at OX1 amounted to 6 nM; on OX2 (OX2 (IC50) nM), 7 nM.
Turning to `Cc1ncc(OC[C@@]2(c3ccccc3)C[C@H]2C(=O)Nc2cccc(CO)c2)c(C)n1` [Example 17], the 50% inhibitory concentration (IC50) at OX1 (setting [1]) came to 294 nM; on OX2 (read-out: OX2 (IC50)) it was 38 nM.
On to `Cc1ncc(OCC2(c3ccccc3F)CC2C(=O)Nc2ccc(Cl)cn2)c(C)n1` (stereo not shown) [Example 262], for which the IC50 came out at 85 nM at OX1 and 51 nM on OX2 (OX2 (IC50) nM).
For `Cc1ncc(N(C)C[C@@]2(c3cccc(F)c3)C[C@H]2C(=O)Nc2cc(C)c(Cl)cn2)c(C)n1` [Example 295, (1R,2S)-N-(5-chloro-4-methylpyridin-2-yl)-2-[N-(2,4-dimethylpyrimidin-5-yl)methylaminomethyl]-2-(3-fluorophenyl)cyclopropanecarboxamide], the concentration for half-maximal inhibition (IC50) is 5 nM on OX1 (setting [1]) and 6 nM on OX2 (read-out: OX2 (IC50)).
The matching figures for `CCc1nc(C)ncc1OC[C@@]1(c2ccc(F)cc2)C[C@H]1C(=O)Nc1cc(Cl)ccn1` [Example 247, (1R,2S)-N-(4-chloropyridin-2-yl)-2-{[(4-ethyl-2-methylpyrimidin-5-yl)oxy]methyl}-2-(4-fluorophenyl)cyclopropanecarboxamide]: 22 nM and 3 nM.
For the molecule `COCc1nc(C)ncc1OC[C@@]1(c2cccc(F)c2)C[C@H]1C(=O)Nc1ccc(F)cc1F` [Example 196, (1R,2S)-N-(2,4-difluorophenyl)-2-(3-fluorophenyl)-2-{[(4-methoxymethyl-2-methylpyrimidin-5-yl)oxy]methyl}cyclopropanecarboxamide], the IC50 at OX1 (setting [1]) was determined as 9 nM; at OX2 (read-out: OX2 (IC50)) it was 4 nM.
For `Cc1ncc(OC[C@@]2(c3ccccc3)C[C@H]2C(=O)Nc2ccc(Cl)c(C#N)c2)c(C)n1` [Example 27], the IC50 at OX1 (setting [1]) is 169 nM; on OX2 (read-out: OX2 (IC50)) it was 15 nM.
For the molecule `COCc1nc(C)ncc1OC[C@@]1(c2cc(F)cc(OC)c2)C[C@H]1C(=O)Nc1cccc(F)c1` [Example 236, (1R,2S)-2-(3-fluoro-5-methoxyphenyl)-N-(3-fluorophenyl)-2-{[(4-methoxymethyl-2-methylpyrimidin-5-yl)oxy]methyl}cyclopropanecarboxamide], the half-inhibitory concentration (IC50) on OX1 was determined as 21 nM; on OX2 (OX2 (IC50) nM), 5 nM.
In the case of `CCc1nc(C)ncc1OC[C@@]1(c2cccc(F)c2)C[C@H]1C(=O)Nc1ccc(C#N)cn1` [Example 242, (1R,2S)-N-(5-cyanopyridin-2-yl)-2-{[(4-ethyl-2-methylpyrimidin-5-yl)oxy]methyl}-2-(3-fluorophenyl)cyclopropanecarboxamide], the half-inhibitory concentration (IC50) on OX1 (setting [1]) turned out to be 6 nM; at OX2 (read-out: OX2 (IC50)), 4 nM.
Consider `Cc1ncc(OC[C@@]2(c3ccccc3)C[C@H]2C(=O)Nc2ccc(C(F)(F)F)cn2)c(C)n1` [Example 5], for which the IC50 at OX1 (setting [1]) amounted to 145 nM; on OX2 (read-out: OX2 (IC50)) it was 38 nM.
For `COc1cccc(NC(=O)[C@@H]2C[C@@]2(COc2cnc(C)nc2C)c2ccccc2)c1` [Example 36, (1R,2S)-2-{[(2,4-dimethylpyrimidin-5-yl)oxy]methyl}-N-(3-methoxyphenyl)-2-phenylcyclopropanecarboxamide], the IC50 on OX1 (setting [1]) turned out to be 9 nM; at OX2 (read-out: OX2 (IC50)), 3 nM.
As for `Cc1ncc(OC[C@@]2(c3ccccc3)C[C@H]2C(=O)Nc2cccc(S(C)(=O)=O)c2)c(C)n1` [Example 29], the IC50 on OX1 (setting [1]) is 459 nM; on OX2 (read-out: OX2 (IC50)), 55 nM.
For the molecule `COCc1nc(C)ncc1OC[C@@]1(c2ccc(F)c(F)c2)C[C@H]1C(=O)Nc1cc(C)c(F)cn1` [Example 212, (1R,2S)-2-(3,4-difluorophenyl)-N-(5-fluoro-4-methylpyridin-2-yl)-2-{[(4-methoxymethyl-2-methylpyrimidin-5-yl)oxy]methyl}cyclopropanecarboxamide], the IC50 at OX1 (setting [1]) turned out to be 4 nM; on OX2 (read-out: OX2 (IC50)) it was 7 nM.
Take `COCc1nc(C)ncc1OC[C@@]1(c2ccc(F)cc2)C[C@H]1C(=O)Nc1ccc(Cl)cn1` [Example 204, (1R,2S)-N-(5-chloropyridin-2-yl)-2-(4-fluorophenyl)-2-{[(4-methoxymethyl-2-methylpyrimidin-5-yl)oxy]methyl}cyclopropanecarboxamide]: the figures for the IC50 on OX1 (setting [1]) and at OX2 (read-out: OX2 (IC50)) were 22 nM and 5 nM, respectively.
Regarding `Cc1ncc(OC[C@@]2(c3ccccc3)C[C@H]2C(=O)Nc2cc(C(F)(F)F)ccn2)c(C)n1` [Example 10], the 50% inhibitory concentration (IC50) at OX1 (setting [1]) worked out at 228 nM; at OX2 (read-out: OX2 (IC50)) it was 31 nM.
